Assay results published in patent US10195147B1, “Dry powder compositions with magnesium stearate” (OTITOPIC INC., priority 2017, dated 2019).
Several values for one entry are separate records, joined by “and”; a condition that tells them apart may be missing. Identical values can stand only once.

What was measured:
Assay type in all cases: physicochemical
[1] = Colloid-probe atomic force microscopy, force of cohesion; conditions: five drug probes per formulation against smooth crystalline aspirin surface
Description: Colloid-probe atomic force microscopy studies (AFM) was used to measure the cohesive surface interfacial forces (FIG. 6). Five individual particles from each of powder formulation was attached to tipless cantilevers. These were designated as drug probes, which were then interacted with a smooth surface of crystalline aspirin. In this way, it was possible to measure the force of cohesion of the particles of the different formulations (FIG. 6), which followed the following rank order: […]

[2] = Particle size distribution by Spraytec using low resistance device; conditions: 90 L/min, 2.7 second actuation, 5 tests
Description: Particle size distribution of ASA/MgST dry powder composition with 0.5%, 1%, 5%, and 10% w/w MgST, spray-dried Aspirin 85%/Leucine 15% Formulation (036 or 36)>Aspirin 95%/Leucine 5% Formulation (046 or 46), and micronized ASA were measured by Spraytec using low resistance device, at 90 L/min flow rate with 2.7 second actuation time with a step of device/mouthpiece/USP/throat/IC/DUSA, and 5 tests for each composition (Table 5E).

[3] = NGI data of the NGI v. Spraytec comparison; conditions: Table 5F

Compound: CC(=O)Oc1ccccc1C(=O)O [Micronized ASA, acetylsalicylic acid]
- force of cohesion, rank order [1]: >ASA co-micronised with 0.5% magnesium stearate
- % V < 5 μm [2]: 54.7 (3.15) %
- % V < 10 μm [2]: 88.99 (2.05) %
- Dv(10) [2]: 1.9 (0.08) μm
- Dv(50) [2]: 4.63 (0.24) μm and 4.62 (0.24) μm
- Dv(90) [2]: 10.32 (0.65) μm
- NGI FPF [3]: 20.71%
- NGI MMAD [3]: 4.86 μm
